Laboratory results from patent US11351178B2, “Selective HDAC6 inhibitors” (ITALFARMACO S.P.A., priority 2017, dated 2022).

How the values were obtained:
[1] = test system: α-tubulin acetylation in 697 cell line; assay: In vitro α-tubulin acetylation in 697 cell line; format: cell-based
Protocol: (§1) The in vitro α-tubulin and H3 histone acetylation determination was evaluated on B 697 […] cell line.
(§2) The test molecules were diluted from 20 mM stock solution in DMSO with RPMI 10% FCS+0.01% DMSO medium at 20× concentration compared to the final concentration, added to the cells (15×10^6 cells in a total volume of 30 ml in RPMI medium 10% FCS+0.01% DMSO) to obtain the final concentrations of 1000, 333, 111 and 37 nM and incubated at 37° C., 5% CO2 for 16 hours.
At the end of the incubation period, 5×10^6 cells were taken from each sample, centrifuged for 5 minutes at 1100 rpm and washed in 0.9% NaCl at 4° C. The resulting pellet was lysed by treating at 4° C. for 30 minutes with 150 μl of Complete Lysis-M (Roche, cat-04719956051) containing protease inhibitors and phosphatase (Complete Easy Pack proteinase inhibitor cocktail tablets cat: 04693116001, Phostop easypack phosphatase inhibitor cocktails, cat: 01906837001—Roche), then centrifuged 10 minutes at 14,000 rpm (20817×g). 0.150 μg of supernatant (total protein extract) were diluted in 100 μl of 1×PBS and immobilized in Maxisorp F96 NUN-IMMUNO Plate (Nunc cat #5442404) at room temperature overnight. Plates were washed twice with Wash Buffer (PBS1X+0.005% tween 20) and saturated for 1 hour at room temperature with 300 μL of 1×PBS containing 10 FCS. After washing with buffer (1×PBS containing 0.005% tween), the plates were incubated for two hours at room temperature in the presence of anti-acetylated-α-tubulin antibody (Monoclonal Anti-acetylated-tubulin clone 6-11B-1, mouse ascites fluid, cat #T6793 Sigma, 100 μl diluted 1:1000 in 1×PBS containing 10% FCS) or with total anti-α-tubulin antibody (Monoclonal Anti alpha-tubulin produced in mouse, cat #T6074 Sigma). After washing, 100 μl per well of TMB substrate kit was added for 10 minutes at room temperature in the dark. The reaction was stopped by adding 50 μl of 2N H2SO4. The plates were read at Multiskan Spectrum spectrophotometer at a wavelength of 450 nm.
The degree of acetylation was calculated by dividing the absorbance obtained for acetylated α-tubulin by the absorbance of total α-tubulin.
(§3) Test results of tubulin and H3 histone acetylation, expressed as fold increase of ratio of acetylated α-tubulin/total α-tubulin and H3Ac/H3Tot, respectively, of each sample relative to the control sample (untreated) are summarized in Tables 6 and 6′.

[2] = format: in vivo; conditions: mouse, Day 12, 100 mg/Kg ip
Protocol: Following chronic intraperitoneal administration in C57BL/6 mice, compounds MTD was estimated by clinical (body weight and behaviour) and blood (white blood cells and platelets) parameters evaluation. The compounds were administered after dissolution in a H2O/PEG400 mixture in ratio 1:1 w/w containing 5% DMSO (for compound 17, 20% DMSO was used).
All animals were weighed the day before the treatment (day 0) and the average body weight was determined.
Animals (8 animals per group) were treated once a day starting from Day 1 during 5 consecutive days per week with: • a) the compounds at doses of 10, 30, 50 mg/kg ip, • b) Givinostat at 100 mg/kg (internal control) and • c) the vehicle solutions used for solubilizing the substances.
The volume of the solutions administered was 10 mL/Kg. The treatment was repeated for 2 weeks, for a total of 10 treatments/group.
On a daily basis any clinical sign (skin appearance, mobility and animal reactivity, respiration, etc.) indicating a possible toxicity of the compounds has been reported. The animal weight was evaluated on days 2, 4, 9 and 11.
On Day 1, 3, 5, 8, 10 and 12, blood sample (about 50 μL) were taken from the tail of the animal to evaluate the effect of the substances on blood parameters. Withdrawals were performed on 4 animals per group on alternate days.
Samples were harvested in tubes containing EDTA, appropriately diluted in physiological solution and analysed with a cell counter.
At the end of the study (day 12) the animals were sacrificed 60 minutes after the last treatment. Gross necropsy evaluation was performed to detect any internal organ abnormalities. Table 8 summarizes the data obtained in MTD determination experiments for some of the compounds according to the invention. Givinostat is a HDAC pan inhibitor and was used as a reference. The tested molecules are well tolerated.

[3] = test system: H3 histone acetylation in 697 cell line; assay: In vitro H3 histone acetylation in 697 cell line; format: cell-based
Protocol: as §1, §2
The remaining cells (10×10^6) were treated by acid extraction of histones (Kazuhiro et al., PNAS (2002), 99 (13) 8921-8926). Cells were centrifuged 5 min at 1100 rpm at 4° C. and washed once in 0.9% NaCl. The resulting pellet was lysed with […] (10 mM Tris.HCl, pH 6.5/50 mM sodium bisulphite, 1% Triton X-100/10 mM MgCl2/8.6% saccharose containing the protease inhibitor mixture (Roche)) for 20 min at 4° C. The resulting nucleus pellet was repeatedly washed in buffer until supernatant clarification (centrifuged at 7,500×g, 5 minutes after each wash) and finally washed in nucleus buffer (10 mM Tris.HCl/13 mm EDTA, pH 7, 4) and resuspended in 250 μl of 0.2 M HCl/H2SO4. Histone proteins were extracted in an acidic environment by incubating overnight at 4° C. under gentle shaking. After centrifugation at 14,000 rpm at 4° C. for 10 minutes, 1250 μl of cold acetone was added to the supernatant and incubated overnight at −20° C., resulting in the precipitation of histone proteins. The pellet obtained after centrifugation for 10 minutes at 14000 rpm and 4° C. was washed with cold acetone, evaporated to dryness and resuspended in 50 μl distilled water. The protein content determination of both total and histone extracts was carried out by a colorimetric assay using a BCA Protein Assay Kit (Pierce cat: 23227).
H3 histone acetylation and total H3 amount were quantified by commercial ELISA assays PathScan acetylated histone H3 Sandwich Elisa kit, cat #7232C and PathScan total histone H3 Sandwich Elisa Kit, cat #7253C Cell Signaling) according to supplier reported method and by detecting absorbance at 450 nm wavelength using Multiskan Spectrum. ELISA tests were performed by analysing 0.250 μg and 0.500 μg of histone extract of each sample. The degree of acetylation was calculated by dividing H3 histone absorbance by histone total absorbance.
as §3

## CCN(CC)Cc1ccc2cc(COC(=O)Nc3ccc(C(=O)NO)cc3)ccc2c1 [Givinostat, reference compound]
[1]
  tubulin acetylation (in words): good acetylation of both tubulin and H3 histone
[1]; Conc 37 nM, 16 hours, read-out: Tubulin acetylation (ratio of acetylated tubulin and total tubulin towards control)
  fold induction at 0.037 µM: 1
[1]; Conc 111 nM, 16 hours, read-out: Tubulin acetylation (ratio of acetylated tubulin and total tubulin towards control)
  fold induction at 0.111 µM: 4
[1]; Conc 333 nM, 16 hours, read-out: Tubulin acetylation (ratio of acetylated tubulin and total tubulin towards control)
  fold induction at 0.333 µM: 12
[1]; Conc 1000 nM, 16 hours, read-out: Tubulin acetylation (ratio of acetylated tubulin and total tubulin towards control)
  fold induction at 1 µM: 18
[2]
  Body weight % vs control: 0.9%
  Platelet % vs control: −7%
  White blood cells % vs control: −72%
[3]
  H3 histone acetylation (in words): good acetylation of both tubulin and H3 histone
[3]; 16 h, conc 111 nM, read-out: Acetylation of H3 histone (fold increase of acetylated H3/total H3 towards control)
  fold induction at 0.111 µM: 8
[3]; 16 h, conc 333 nM, read-out: Acetylation of H3 histone (fold increase of acetylated H3/total H3 towards control)
  fold induction at 0.333 µM: 17
[3]; 16 h, conc 1000 nM, read-out: Acetylation of H3 histone (fold increase of acetylated H3/total H3 towards control)
  fold induction at 1 µM: 23
